Measurements published in patent publication US20240409585A1, “MACROCYCLIC IMMUNOMODULATORS” (priority 2021, published 2024).
Bridge positions count the residues as written; N and C are the ends. Square brackets hold non-standard residues; d marks the D form. Peptide text beside a SMILES is read from it. * marks the point of attachment. ξ: configuration not given here. Phe(4-COOH) = N[C@@H](Cc1ccc(C(=O)O)cc1)C(=O)O; Trp(7-Me) = Cc1cccc2c(C[C@H](N)C(=O)O)c[nH]c12; Bip = N[C@@H](Cc1ccc(-c2ccccc2)cc1)C(=O)O; Phe(3-CN) = N#Cc1cccc(C[C@H](N)C(=O)O)c1; Phe(3-Me) = Cc1cccc(C[C@H](N)C(=O)O)c1; Gly(cPent) = N[C@H](C(=O)O)C1CCCC1; Val(3-OH) = CC(C)(O)[C@H](N)C(=O)O; aIle = CC[C@@H](C)[C@H](N)C(=O)O; 4Pal = N[C@@H](Cc1ccncc1)C(=O)O; Cha = N[C@@H](CC1CCCCC1)C(=O)O; Cit = NC(=O)NCCC[C@H](N)C(=O)O; Thr(3ξ) = CC(O)[C@H](N)C(=O)O; dOrn = NCCC[C@@H](N)C(=O)O; Carboxymethyl = O=C(O)C*; NMeA = CN[C@@H](C)C(=O)O; Orn = NCCC[C@H](N)C(=O)O; Dab = NCC[C@H](N)C(=O)O; Dap = NC[C@H](N)C(=O)O; ξV = CC(C)C(N)C(=O)O; ξC = NC(CS)C(=O)O; Acm = CC(=O)NC*

Target: T1, PE-labeled human PD-L1-Ig binding to Jurkat cell line over-expressing human PD-1 (Jurkat-PD-1) (Homo sapiens, UniProt Q15116)
T1 construct: expressed in transfected cells; host or cells: Jurkat
T1 sequence (Q15116 25-288): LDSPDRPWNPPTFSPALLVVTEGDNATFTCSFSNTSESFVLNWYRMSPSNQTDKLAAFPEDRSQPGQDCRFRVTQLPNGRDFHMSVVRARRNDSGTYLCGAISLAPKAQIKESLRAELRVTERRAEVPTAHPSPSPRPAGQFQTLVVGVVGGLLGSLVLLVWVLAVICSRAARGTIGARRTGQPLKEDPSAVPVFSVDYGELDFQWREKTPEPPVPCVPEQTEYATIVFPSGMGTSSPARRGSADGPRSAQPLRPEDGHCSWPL
Test: Jurkat-PD-1 Cell Binding High-Content Screening Assay (CBA): Method 1
Details: Jurkat-hPD-1 cells, PE-labeled PD-L1-Ig 20 nM final; read-out: Jurkat HPDL1 PD1 IC50 (uM) (Method 1)

| SMILES | IC50 [µM] |
| --- | --- |
| Cc1cccc(C[C@@H]2NC(=O)[C@H](CC(=O)O)NC(=O)[C@H](Cc3ccc(OCC(=O)O)cc3)NC(=O)[C@H](C(C)O)NC(=O)CSC[C@@H](C(=O)N[C@@H](CCN)C(N)=O)NC(=O)[C@H](C(C)O)NC(=O)[C@H](C(C)C)NC(=O)[C@H](CC3CCCCC3)NC(=O)[C@H](CCN)NC(=O)[C@@H](CC(C)C)NC(=O)[C@H](C)N(C)C(=O)[C@H](Cc3ccc(OCC(=O)O)cc3)NC(=O)[C@H](Cc3ccc(-c4ccccc4)cc3)NC(=O)[C@H](Cc3ccc(C(=O)O)cc3)NC2=O)c1 (stereo partly drawn) [Compound 2115] ({CH2CO}-[Thr(3ξ)]Y(Carboxymethyl)D[Phe(3-Me)][Phe(4-COOH)][Bip]Y(Carboxymethyl)[NMeA][dL][Dab][Cha]V[Thr(3ξ)]C[Dab]-NH2; thioether N-14) | 0.01 |
| CC(C)C[C@H]1NC(=O)[C@H](C)N(C)C(=O)[C@H](C(C)(C)O)NC(=O)[C@H](Cc2ccc(-c3ccccc3)cc2)NC(=O)[C@H](C(C)(C)O)NC(=O)[C@H](Cc2c[nH]c3ccccc23)NC(=O)[C@H](CC(=O)O)NC(=O)[C@H](Cc2ccc(C(=O)O)cc2)NC(=O)[C@H](Cc2ccc(OCC(=O)O)cc2)NC(=O)CSC[C@@H](C(=O)N[C@@H](CCN)C(N)=O)NC(=O)[C@H](CCC(=O)O)NC(=O)[C@H](C(C)(C)O)NC(=O)[C@H](CC2CCCCC2)NC(=O)[C@H](CCN)NC1=O [Compound 1713] ({CH2CO}-Y(Carboxymethyl)[Phe(4-COOH)]DW[Val(3-OH)][Bip][Val(3-OH)][NMeA][dL][Dab][Cha][Val(3-OH)]EC[Dab]-NH2; thioether N-14) | 0.13 |
| CC(=O)NCCCC[C@@H]1NC(=O)[C@H](C(C)C)NC(=O)[C@H](CC2CCCCC2)NC(=O)[C@H](CCN)NC(=O)[C@@H](CC(C)C)NC(=O)[C@H](C)N(C)C(=O)[C@H](CCC(N)=O)NC(=O)[C@H](Cc2ccc(-c3ccccc3)cc2)NC(=O)[C@H](C(C)C)NC(=O)[C@H](Cc2cccc(C)c2)NC(=O)[C@H](CC(=O)O)NC(=O)[C@H](Cc2ccc(OCC(=O)O)cc2)NC(=O)[C@H](Cc2ccc(OCC(=O)O)cc2)NC(=O)CSC[C@@H](C(=O)N[C@H](CCCN)C(N)=O)NC1=O [Compound 2155] ({CH2CO}-Y(Carboxymethyl)Y(Carboxymethyl)D[Phe(3-Me)]V[Bip]Q[NMeA][dL][Dab][Cha]VK(Ac)C[dOrn]-NH2; thioether N-14) | 0.01 |
| CC(C)C[C@@H]1NC(=O)[C@H](CCN)NC(=O)[C@@H](CC(C)C)NC(=O)[C@H](C)N(C)C(=O)[C@H](CCC(=O)O)NC(=O)[C@H](Cc2ccc(-c3ccccc3)cc2)NC(=O)[C@H](C(C)C)NC(=O)[C@H](Cc2c[nH]c3ccccc23)NC(=O)[C@H](CC(=O)O)NC(=O)[C@H](Cc2ccc(O)cc2)NC(=O)[C@H](CC(N)=O)NC(=O)CSC[C@@H](C(=O)N[C@@H](C)C(N)=O)NC(=O)[C@H]([C@@H](C)O)NC(=O)[C@H](C(C)C)NC1=O [Compound 1255] ({CH2CO}-NYDWV[Bip]E[NMeA][dL][Dab]LVTCA-NH2; thioether N-14) | 0.03 |
| CC(C)C[C@@H]1NC(=O)[C@H](CCCNC(=N)N)NC(=O)[C@@H](CC(C)C)NC(=O)[C@H](C)N(C)C(=O)[C@H](CCC(=O)O)NC(=O)[C@H](Cc2ccc(-c3ccccc3)cc2)NC(=O)[C@H](C(C)C)NC(=O)[C@H](Cc2c[nH]c3ccccc23)NC(=O)[C@H](CC(=O)O)NC(=O)[C@H](Cc2ccc(O)cc2)NC(=O)[C@H](CC(N)=O)NC(=O)CSC[C@@H](C(=O)N[C@@H](C)C(N)=O)NC(=O)[C@H](CCCN)NC(=O)[C@H](C(C)C)NC1=O [Compound 1250] ({CH2CO}-NYDWV[Bip]E[NMeA][dL]RLV[Orn]CA-NH2; thioether N-14) | 0.07 |
| CC[C@@H](C)[C@@H]1NC(=O)[C@H](Cc2ccc(-c3ccccc3)cc2)NC(=O)[C@H](C2CCCC2)NC(=O)[C@H](Cc2c[nH]c3ccccc23)NC(=O)[C@H](CC(=O)O)NC(=O)[C@H](Cc2ccc(C(=O)O)cc2)NC(=O)[C@H](Cc2ccc(OCC(=O)O)cc2)NC(=O)CSC[C@@H](C(=O)N[C@@H](CCCCN)C(N)=O)NC(=O)[C@H](CO)NC(=O)C(C(C)C)NC(=O)[C@H](CC(C)C)NC(=O)[C@H](CC(N)=O)NC(=O)[C@@H](CC(C)C)NC(=O)[C@H](C)N(C)C1=O (stereo partly drawn) [Compound 2103] ({CH2CO}-Y(Carboxymethyl)[Phe(4-COOH)]DW[Gly(cPent)][Bip][aIle][NMeA][dL]NL[ξV]SCK-NH2; thioether N-14) | 0.04 |

The next lines start with the values.

| IC50 [µM] | SMILES |
| --- | --- |
| 0.56 | Cc1cccc2c(C[C@@H]3NC(=O)[C@H](CC(=O)O)NC(=O)[C@H](Cc4ccc(O)cc4)NC(=O)[C@H](Cc4ccccc4)NC(=O)CSC[C@@H](C(=O)N[C@@H](C)C(N)=O)NC(=O)[C@H]([C@@H](C)O)NC(=O)[C@H](C(C)C)NC(=O)[C@H](CC(C)C)NC(=O)[C@H](CCN)NC(=O)[C@@H](CC(C)C)NC(=O)[C@H](C)N(C)C(=O)[C@H](CCCNC(=N)N)NC(=O)[C@H](Cc4ccc(-c5ccccc5)cc4)NC(=O)[C@H](C(C)C)NC3=O)c[nH]c12 [Compound 1201] ({CH2CO}-FYD[Trp(7-Me)]V[Bip]R[NMeA][dL][Dab]LVTCA-NH2; thioether N-14) |
| 0.03 | CC(C)C[C@@H]1NC(=O)[C@H](CCN)NC(=O)[C@@H](CC(C)C)NC(=O)[C@H](C)N(C)C(=O)[C@H](CCCNC(=N)N)NC(=O)[C@H](Cc2ccc(-c3ccccc3)cc2)NC(=O)[C@H](C(C)C)NC(=O)[C@H](Cc2c[nH]c3ccccc23)NC(=O)[C@H](CC(=O)O)NC(=O)[C@H](Cc2ccc(O)cc2)NC(=O)[C@H](CC(N)=O)NC(=O)CSC[C@@H](C(=O)N[C@@H](C)C(N)=O)NC(=O)[C@H]([C@@H](C)O)NC(=O)[C@H](C(C)C)NC1=O [Compound 1189] ({CH2CO}-NYDWV[Bip]R[NMeA][dL][Dab]LVTCA-NH2; thioether N-14) |
| 0.07 | CC(C)C[C@@H]1NC(=O)[C@H](CCCNC(=N)N)NC(=O)[C@@H](CC(C)C)NC(=O)[C@H](C)N(C)C(=O)[C@H](CCCNC(=N)N)NC(=O)[C@H](Cc2ccc(-c3ccccc3)cc2)NC(=O)[C@H](C(C)C)NC(=O)[C@H](Cc2c[nH]c3ccccc23)NC(=O)[C@H](CC(=O)O)NC(=O)[C@H](Cc2ccncc2)NC(=O)[C@H](Cc2ccccc2)NC(=O)CSC[C@@H](C(=O)N[C@@H](C)C(N)=O)NC(=O)[C@H]([C@@H](C)O)NC(=O)[C@H](C(C)C)NC1=O [Compound 1085] ({CH2CO}-F[4Pal]DWV[Bip]R[NMeA][dL]RLVTCA-NH2; thioether N-14) |
| 0.05 | Cc1cccc(C[C@@H]2NC(=O)[C@H](CC(N)=O)NC(=O)CSC[C@@H](C(=O)N[C@@H](C)C(N)=O)NC(=O)[C@H]([C@@H](C)O)NC(=O)[C@H](C(C)C)NC(=O)[C@H](CC(C)C)NC(=O)[C@H](CCN)NC(=O)[C@@H](CC(C)C)NC(=O)[C@H](C)N(C)C(=O)[C@H](CCCNC(N)=O)NC(=O)[C@H](Cc3ccc(-c4ccccc4)cc3)NC(=O)[C@H](C(C)C)NC(=O)[C@H](Cc3c[nH]c4ccccc34)NC(=O)[C@H](CC(=O)O)NC2=O)c1 [Compound 1311] ({CH2CO}-N[Phe(3-Me)]DWV[Bip][Cit][NMeA][dL][Dab]LVTCA-NH2; thioether N-14) |
| 0.09 | CC(C)C[C@@H]1NC(=O)[C@H](CCCN)NC(=O)[C@@H](CC(C)C)NC(=O)[C@H](C)N(C)C(=O)[C@H](CCCNC(=N)N)NC(=O)[C@H](Cc2ccc(-c3ccccc3)cc2)NC(=O)[C@H](C(C)C)NC(=O)[C@H](Cc2c[nH]c3ccccc23)NC(=O)[C@H](CC(=O)O)NC(=O)[C@H](Cc2cnc[nH]2)NC(=O)[C@H](Cc2ccccc2)NC(=O)CSC[C@@H](C(=O)N[C@@H](C)C(N)=O)NC(=O)[C@H]([C@@H](C)O)NC(=O)[C@H](C(C)C)NC1=O [Compound 1129] ({CH2CO}-FHDWV[Bip]R[NMeA][dL][Orn]LVTCA-NH2; thioether N-14) |
| 0.07 | CC(C)C[C@@H]1NC(=O)[C@H](CCN)NC(=O)[C@@H](CC(C)C)NC(=O)[C@H](C)N(C)C(=O)[C@H](CCC(=O)O)NC(=O)[C@H](Cc2ccc(-c3ccccc3)cc2)NC(=O)[C@H](C(C)C)NC(=O)[C@H](Cc2c[nH]c3ccccc23)NC(=O)[C@H](CC(=O)O)NC(=O)[C@H](Cc2ccc(O)cc2)NC(=O)[C@H](Cc2ccccc2)NC(=O)CSC[C@@H](C(=O)N[C@@H](CCC(=O)O)C(N)=O)NC(=O)[C@H]([C@@H](C)O)NC(=O)[C@H](C(C)C)NC1=O [Compound 1164] ({CH2CO}-FYDWV[Bip]E[NMeA][dL][Dab]LVTCE-NH2; thioether N-14) |
| 0.05 | CC(C)C[C@@H]1NC(=O)[C@H](CCN)NC(=O)[C@@H](CC(C)C)NC(=O)[C@H](C)N(C)C(=O)[C@H](Cc2cnc[nH]2)NC(=O)[C@H](Cc2ccc(-c3ccccc3)cc2)NC(=O)[C@H](C(C)C)NC(=O)[C@H](Cc2c[nH]c3ccccc23)NC(=O)[C@H](CC(=O)O)NC(=O)[C@H](Cc2cccc(C#N)c2)NC(=O)[C@H](CN)NC(=O)CSC[C@@H](C(=O)N[C@@H](C)C(N)=O)NC(=O)[C@H]([C@@H](C)O)NC(=O)[C@H](C(C)C)NC1=O [Compound 1432] ({CH2CO}-[Dap][Phe(3-CN)]DWV[Bip]H[NMeA][dL][Dab]LVTCA-NH2; thioether N-14) |
| 0.02 | Cc1cccc(C[C@@H]2NC(=O)[C@H](CC(=O)O)NC(=O)[C@H](Cc3ccc(C(=O)O)cc3)NC(=O)[C@H](Cc3ccc(OCC(=O)O)cc3)NC(=O)CSC[C@@H](C(=O)N[C@@H](C)C(N)=O)NC(=O)[C@H](CO)NC(=O)[C@H](C(C)C)NC(=O)[C@H](CC(C)C)NC(=O)[C@H](CC(N)=O)NC(=O)[C@@H](C)NC(=O)[C@H](C)N(C)C(=O)[C@H](C(C)C)NC(=O)[C@H](Cc3ccc(-c4ccccc4)cc3)NC(=O)[C@H](CC(C)C)NC2=O)c1 [Compound 1579] ({CH2CO}-Y(Carboxymethyl)[Phe(4-COOH)]D[Phe(3-Me)]L[Bip]V[NMeA][dA]NLVSCA-NH2; thioether N-14) |
| 0.2 | CC(=O)NCSC[C@@H]1NC(=O)[C@H](Cc2cccc(C)c2)NC(=O)[C@H](CC(=O)O)NC(=O)[C@H](Cc2ccncc2)NC(=O)[C@H](Cc2ccc(OCC(=O)O)cc2)NC(=O)CSCC(C(=O)NCC(N)=O)NC(=O)[C@H](CO)NC(=O)[C@H](C(C)C)NC(=O)[C@H](CC(C)C)NC(=O)[C@H](CC(N)=O)NC(=O)[C@@H](CC(C)C)NC(=O)[C@H](C)N(C)C(=O)[C@H](CSCNC(C)=O)NC(=O)[C@H](Cc2ccc(-c3ccccc3)cc2)NC1=O (stereo partly drawn) [Compound 1888] ({CH2CO}-Y(Carboxymethyl)[4Pal]D[Phe(3-Me)]C(Acm)[Bip]C(Acm)[NMeA][dL]NLVS[ξC]G-NH2; thioether N-14) |
